Test results taken from PMC9032987, “Cytotoxic Alkylynols of the Sponge Cribrochalina vasculum: Structure, Synthetic Analogs and SAR Studies” (Marine Drugs, 2022).

Key:
NSCLC U-1810 cells [1] = assay: MTT cytotoxicity assay in NSCLC U-1810 cells; format: cell-based, human; details: for Selectivity NSCLC cells (U-1810) vs. diploid fibroblasts (WI-38): calculated at IC50 (WI-38 IC50 / U-1810 IC50)
Method: Cytotoxicity structure-activity relationship analyses of compounds in NSCLC tumor cells and fibroblasts. Stock solutions (10 mg/mL) of the compounds to be tested were made in DMSO and further diluted with cell culture media prior to structure-activity relationship (SAR) screening as earlier described. To assess anti-tumor activity, the large cell lung carcinoma cell line NSCLC U-1810 (kind gift from Uppsala University) and diploid lung fibroblasts WI-38 [30] were used. U-1810 cells were propagated in RPMI-1640 medium (Sigma-Aldrich, St. Louis, […], USA) supplemented with FBS (10% HyClone) and L-glutamine (2 mmol/L, Invitrogen) while WI-38 fibroblasts were cultured in Eagle’s Minimum Essential Medium (Sigma-Aldrich) with 15% FBS and L-glutamine. For SAR assessment the cytotoxic assay 3-(4,5-dimethylthiazol-2-yl)-2,5 diphenyltetrazolium bromide (MTT) was applied. Profiling of U-1810 cells was carried out at 80% confluency (obtained by seeding 5000 cells/well in a 96-well plate for 24 h prior to treatment) and of WI-38 at 100% confluency (obtained by seeding 18,000 cells/well in a 96-well plate for 24 h prior to compound addition), the later to mimic the behavior of fibroblasts in the human body where they are non-dividing. For SAR evaluation, different concentrations of the compounds were added to fresh media while untreated cells were treated with DMSO corresponding to the amount applied when testing the highest concentration of the different compounds. The cytotoxicity of the compounds was assessed at 72 h post addition to cells by adding MTT solution (0.5 mg/mL, Sigma-Aldrich, 4 h at 37 °C) and dissolving the resulting formazan crystals in an SDS-containing solution (10% SDS and 0.01 mol/L HCl). Absorbance was quantified at 595 nm and the compound-induced cytotoxicity was calculated relative to that observed in DMSO-treated cells. The IC50 values were deduced from survival plots drawn in Graph Pad PRISM software vers.6 and for some of the compounds extrapolated as indicated in footnotes to Table 1.

NSCLC U-1810 cells [2] = tested on: NSCLC U-1810 cells; set-up: method as in PMID 25319389; details: 72 h; cited from earlier work
[3] = tested on: WI-38 diploid lung fibroblasts; set-up: method as in PMID 25319389; details: 72 h; cited from earlier work

Structure (SMILES) | cytotoxic activity in NSCLC U-1810 cells (in words) (NSCLC U-1810 cells [1]) | Selectivity NSCLC cells (U-1810) vs. diploid fibroblasts (WI-38) (NSCLC U-1810 cells [1]) | IC50 (NSCLC U-1810 cells [2]) | IC50 [3]
C#C[C@H](O)/C=C/CCCCCCCCC(C)CCCCCCCC (stereo partly drawn) [Compound 23, (3R)-14-Methyldocos-(4E)-en-1-yn-3-ol] | equally active | 12.1 | 0.8 µM | 9.7 µM
C#C[C@H](O)/C=C/CCCCCCCCCCCCCCC [scal-18, (3R)-Icos-(4E)-en-1-yn-3-ol] | equally active | 14.6 | 0.5 µM | 7.3 µM
